This passage reports relative viability results from the supplement of paper PMC10307832.

Experiment in all cases: relative viability (nuclei count vs DMSO), 5 days (fraction); higher = more cells survive
Compound in assay [1]: CC1(C)CNc2cc(NC(=O)c3cccnc3NCc3ccncc3)ccc21 [Motesanib] + Nc1nc2[nH]cc(CCc3ccc(C(=O)N[C@@H](CCC(=O)O)C(=O)O)cc3)c2c(=O)[nH]1 [Pemetrexed] (partner 0.2 µM)
The essentials: (§1)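 Lung cancer cell lines in 1536-well plates were dosed by pin tool the day after seeding, either with one drug alone or with a fixed anchor-drug dose plus five library-drug doses (not always all listed) in √10 steps. After 5 days, cells were fixed and their nuclei stained in one step (final 0.05% Triton X-100, 1% formaldehyde, 1 ug/ml Hoechst), then counted on 4× images. Relative viability is the nuclei count in treated wells divided by that in vehicle wells. Values are medians of duplicate plates.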

Compound in assay [2]: CC1(C)CNc2cc(NC(=O)c3cccnc3NCc3ccncc3)ccc21 [Motesanib] + C[C@@H](Oc1cc(-c2cnn(C3CCNCC3)c2)cnc1N)c1c(Cl)ccc(F)c1Cl [Crizotinib] (partner 1 µM)
The essentials:
as §1

Compound in assay [3]: CC1(C)CNc2cc(NC(=O)c3cccnc3NCc3ccncc3)ccc21 [Motesanib] + CCNC(=O)c1noc(-c2cc(C(C)C)c(O)cc2O)c1-c1ccc(CN2CCOCC2)cc1 [Luminespib] (partner 0.01 µM)
Put shortly:
as §1

Compound in assay [4]: C[C@@]1(C(=O)Nc2ccc(F)nc2)CCCN1c1nc(Nc2cc(C3CC3)n[nH]2)c2cccn2n1 + COc1cccc2cc(-c3nc([C@H]4CC[C@H](C(=O)O)CC4)n4ncnc(N)c34)[nH]c12 [OSI-027] (partner 0.5 µM)
The essentials: as §1

As to 201T, the relative viability is 0.307 in assay [1] (first compound 0.01 µM); 0.326 in assay [1] (first compound 0.03162 µM); 0.318 in assay [1] (first compound 0.1 µM); 0.296 in assay [1] (first compound 0.3162 µM); 0.342 in assay [1] (first compound 1 µM); 1.02 in assay [2] (first compound 0.01 µM). In addition, the relative viability is 1.07 in assay [2] (first compound 0.03162 µM); 1.04 in assay [2] (first compound 0.1 µM); 1.04 in assay [2] (first compound 0.3162 µM); 1.06 in assay [2] (first compound 1 µM); 1.02 in assay [3] (first compound 0.01 µM); 1.02 in assay [3] (first compound 0.03162 µM). The relative viability came out at 1.11 in assay [3] (first compound 0.1 µM); 1.01 in assay [3] (first compound 0.3162 µM); 1.05 in assay [3] (first compound 1 µM); 0.519 in assay [4] (first compound 0.04 µM); 0.356 in assay [4] (first compound 0.1265 µM); 0.35 in assay [4] (first compound 0.4 µM). Further, the relative viability in assay [4] (first compound 1.265 µM) was 0.306.

With A549, the relative viability stood at 0.741 in assay [2] (first compound 0.01 µM); 0.663 in assay [2] (first compound 0.03162 µM); 0.746 in assay [2] (first compound 0.1 µM); 0.754 in assay [2] (first compound 0.3162 µM); 0.777 in assay [2] (first compound 1 µM).

Take A-427: the relative viability in assay [1] (first compound 0.01 µM) came to 0.963; in assay [1] (first compound 0.03162 µM) it was 0.912; in assay [1] (first compound 0.1 µM), 0.963; in assay [1] (first compound 0.3162 µM), 0.992; in assay [1] (first compound 1 µM) it was 0.972; in assay [2] (first compound 0.01 µM) it was 0.933. In addition, the relative viability is 0.892 in assay [2] (first compound 0.03162 µM); 0.983 in assay [2] (first compound 0.1 µM); 0.888 in assay [2] (first compound 0.3162 µM); 1.04 in assay [2] (first compound 1 µM); 0.872 in assay [3] (first compound 0.01 µM); 1.05 in assay [3] (first compound 0.03162 µM). In addition, the relative viability in assay [3] (first compound 0.1 µM) turned out to be 0.769; in assay [3] (first compound 0.3162 µM), 1.24; in assay [3] (first compound 1 µM), 1.05; in assay [4] (first compound 0.04 µM) it was 0.442; in assay [4] (first compound 0.1265 µM), 0.275; in assay [4] (first compound 0.4 µM), 0.366. Further, in assay [4] (first compound 1.265 µM), the relative viability is 0.261.

Consider ABC-1, for which the relative viability in assay [2] (first compound 0.01 µM) is 0.996; in assay [2] (first compound 0.03162 µM), 1.03; in assay [2] (first compound 0.1 µM) it was 1.26; in assay [2] (first compound 0.3162 µM), 1.14; in assay [2] (first compound 1 µM), 1.32; in assay [3] (first compound 0.01 µM), 0.637. In addition, the relative viability in assay [3] (first compound 0.03162 µM) amounted to 0.867; in assay [3] (first compound 0.1 µM), 0.556; in assay [3] (first compound 0.3162 µM), 0.716; in assay [3] (first compound 1 µM), 0.866; in assay [4] (first compound 0.04 µM) it was 0.382; in assay [4] (first compound 0.1265 µM) it was 0.285. Besides, the figures for the relative viability in assay [4] (first compound 0.4 µM) and in assay [4] (first compound 1.265 µM) were 0.225 and 0.298, respectively.

Consider BEN, for which the relative viability in assay [1] (first compound 0.01 µM) stood at 0.539; in assay [1] (first compound 0.03162 µM), 0.774; in assay [1] (first compound 0.1 µM) it was 0.73; in assay [1] (first compound 0.3162 µM), 0.582; in assay [1] (first compound 1 µM), 0.749; in assay [2] (first compound 0.01 µM) it was 0.792. For the same cell line, the relative viability was 0.85 in assay [2] (first compound 0.03162 µM); 0.803 in assay [2] (first compound 0.1 µM); 0.928 in assay [2] (first compound 0.3162 µM); 0.978 in assay [2] (first compound 1 µM); 0.331 in assay [3] (first compound 0.01 µM); 0.46 in assay [3] (first compound 0.03162 µM). Further, the relative viability is 0.393 in assay [3] (first compound 0.1 µM); 0.498 in assay [3] (first compound 0.3162 µM); 0.387 in assay [3] (first compound 1 µM); 0.263 in assay [4] (first compound 0.04 µM); 0.18 in assay [4] (first compound 0.1265 µM); 0.236 in assay [4] (first compound 0.4 µM). For the same cell line, the relative viability in assay [4] (first compound 1.265 µM) came out at 0.271.
